# System: C8161 human cutaneous melanoma cells
# Test: In vivo tumor formation, orthotopic mouse model, C8161 melanoma cells
# Conditions: for tumorigenicity / tumor formation: 250,000 C8161 cells treated with Morpholino before subcutaneous injection, n=5, p<0.05
# Method: A microenvironment of human embryonic stem cells (H9 CMTX) was prepared as described above. C8161 human cutaneous melanoma cells were exposed to the H9 CMTX or Matrigel for 3 to 4 days prior to transplantation in a mouse model. Nude immunocompromised mice received an injection of the C8161 cells subcutaneously into the midscapular region (to mimic spontaneous metastatic dissemination found in human cancers). The animals were injected using a 25 or 27-gauge needle with 2.5×10^5 tumor cells/mouse in 0.05 ml RPMI media.
# As a corollary to these findings, an orthotopic mouse model was used to examine the effect of Nodal inhibition on melanoma tumor formation. For the experimental tumourigenesis model, 5 week old nude mice (Harlan, Madison, Wis.) were injected subcutaneously with 250,000 C8161 cells, treated with control or anti-Nodal Morpholinos, in 50 μL of complete RPMI. Tumor measurements were taken on days 3, 7, 14 and 17 post-injection, and mice were sacrificed on day 17. For the orthotopic mouse tumor formation studies, statistical significance was determined using the Kruskal-Wallis One Way Analysis of Variance on Ranks, followed by Dunn's method.
# The derivation and phenotypic characteristics of the human melanoma cell lines have been previously described. Seftor, et. al., 2002, Clin. Experim. Metastas. 19:233-246; Seftor, et. al., 2005 Cancer Res. 65:10164-10169. The melanoma cell lines are maintained in RPMI 1640 medium (Invitrogen) supplemented with 10% fetal bovine serum (FBS, Gemini Bioproducts) and 0.1% gentamycin sulfate with the exception of C81-61 cells which are maintained in Ham's FIO medium supplemented with 15% FBS, 1X Mito+ (BD Bioscience) and gentamycin sulfate. Normal human melanocytes are purchased (Cascade Biologics) or isolated from neonatal foreskins. Seftor, et. al., 2005. A single cell suspension is prepared, added to plastic flasks for the adherence of melanocytes and the cells propagated in Medium 254 with Human Melanocyte Growth Supplement (Cascade Biologics) including, 100 units/ml penicillin, 100 μg/ml streptomycin, and 250 ng/mL amphotericin B. The human embryonic stem cell lines are cultured as previously described. Thomson, et. al., 1998, Science 282:1145-1147. Briefly, cells are grown in 6-well plates precoated with 0.1% porcine gelatin and containing 1.9×10^5 irradiated mouse embryonic fibroblasts (strain CF-1; ATCC) per well. The cells are maintained in medium containing DMEM/F12 (1:1), 20% knock-out serum replacement, non-essential minimal amino acids, L-glutamine (Invitrogen), […], and 4 ng/ml FGF-2 (R&D Systems), and are split with collagenase (1 mg/ml) before the colonies begin to overlap. The cultures are determined to be free of mycoplasma contamination using a PCR-based assay (Roche). […]
# [1] = 250,000 C8161 cells treated with anti-Nodal Morpholino before injection
substance,measurement,setting,value
"MO^Nodal: FITC-conjugated anti-sense Morpholino to Nodal, 5′-AAGCAGCACCTCCAGCCCTTATATC-3′ [SEQ ID NO: 20] (all phosphorodiamidate morpholino (PMO); FITC conjugated, position not given here)",tumorigenicity / tumor formation,listed as MO Nodal,reduction in tumor formation
same,tumorigenicity / tumor formation,listed as MONodal,significant reduction
same,diminution of tumor incidence,[1],30%
same,tumor growth,[1],decrease

# — patent publication US8106004B2, “Methods of inhibiting tumor cell aggressiveness using the microenvironment of human embryonic stem cells” (Children's Memorial Hospital, priority 2006, dated 2012)
